Measurements reported in ChEMBL document CHEMBL5352456, “Isocyanides in med chem: A scaffold hopping approach for the identification of novel 4-isocyanophenylamides as potent antibacterial agents against methicillin-resistant Staphylococcusaureus” (Eur J Med Chem, 2023).
Converted amounts (≈) assume the structure as drawn. The source made the active and inactive calls. No cut-off for these calls is given here.

Experiments:
[1] = Metabolic stability in rat liver microsome assessed as parent compound remaining at 50 uM incubated for 1 hr in presence of NADPH regenerating system and GSH by LC-UV analysis; assay type: ADME; conditions: liver microsomes, read-out: Stability
[2] = test system: Pseudomonas aeruginosa; assay: Antibacterial activity against Pseudomonas aeruginosa ATCC 10145 assessed as inhibition of bacterial growth measured for 16 to 20 hrs by microdilution assay; assay type: functional; conditions: time 16-20 hrs
[3] = Metabolic stability in human plasma assessed as parent compound remaining at 50 uM incubated for 60 mins by LC-UV analysis; assay type: ADME, cell-free; conditions: read-out: Stability
[4] = test system: Staphylococcus aureus; assay: Antibacterial activity against Staphylococcus aureus ATCC 6538 assessed as reduction in microbial growth measured for 16 to 20 hrs by microdilution assay; assay type: functional; conditions: time 16-20 hrs
[5] = test system: Staphylococcus aureus; assay: Antibacterial activity against Staphylococcus aureus ATCC 25923 assessed as reduction in microbial growth measured for 16 to 20 hrs by microdilution assay; assay type: functional; conditions: time 16-20 hrs
[6] = test system: Escherichia coli; assay: Antibacterial activity against Escherichia coli ATCC 25922 assessed as inhibition of bacterial growth measured for 16 to 20 hrs by microdilution assay; assay type: functional; conditions: time 16-20 hrs
[7] = test system: Staphylococcus aureus; assay: Antibacterial activity against Staphylococcus aureus ATCC 29213 assessed as reduction in microbial growth measured for 16 to 20 hrs by microdilution assay; assay type: functional; conditions: time 16-20 hrs
[8] = test system: Klebsiella pneumoniae; assay: Antibacterial activity against Klebsiella pneumoniae ATCC 700603 assessed as inhibition of bacterial growth measured for 16 to 20 hrs by microdilution assay; assay type: functional; conditions: time 16-20 hrs
[9] = test system: Staphylococcus epidermidis; assay: Antibacterial activity against Staphylococcus epidermidis ATCC 35984 assessed as reduction in microbial growth measured for 16 to 20 hrs by microdilution assay; assay type: functional; conditions: time 16-20 hrs
[10] = test system: Staphylococcus aureus; assay: Antibacterial activity against methicillin-resistant Staphylococcus aureus ATCC 33592 assessed as reduction in microbial growth measured for 16 to 20 hrs by microdilution assay; assay type: functional; conditions: time 16-20 hrs
[11] = test system: Staphylococcus epidermidis; assay: Antibacterial activity against Staphylococcus epidermidis ATCC 49134 assessed as reduction in microbial growth measured for 16 to 20 hrs by microdilution assay; assay type: functional; conditions: time 16-20 hrs
[12] = test system: Staphylococcus aureus; assay: Antibacterial activity against methicillin-resistant Staphylococcus aureus ATCC 43300 assessed as reduction in microbial growth measured for 16 to 20 hrs by microdilution assay; assay type: functional; conditions: time 16-20 hrs
[13] = test system: Staphylococcus epidermidis; assay: Antibacterial activity against Staphylococcus epidermidis ATCC 12228 assessed as reduction in microbial growth measured for 16 to 20 hrs by microdilution assay; assay type: functional; conditions: time 16-20 hrs
[14] = test system: Staphylococcus aureus; assay: Antibacterial activity against methicillin-resistant Staphylococcus aureus ATCC 43300 assessed as reduction in microbial growth by microdilution assay; assay type: functional
[15] = test system: Staphylococcus aureus; assay: Antibacterial activity against Staphylococcus aureus assessed as inhibition of bacterial growth; assay type: functional
[16] = test system: Bacillus anthracis; assay: Antibacterial activity against Bacillus anthracis assessed as inhibition of bacterial growth; assay type: functional
[17] = test system: Klebsiella pneumoniae; assay: Antibacterial activity against Klebsiella pneumoniae assessed as inhibition of bacterial growth; assay type: functional
[18] = test system: Pseudomonas aeruginosa; assay: Antibacterial activity against Pseudomonas aeruginosa assessed as inhibition of bacterial growth; assay type: functional
[19] = test system: Acinetobacter baumannii; assay: Antibacterial activity against Acinetobacter baumannii assessed as inhibition of bacterial growth; assay type: functional
[20] = test system: Clavibacter michiganensis; assay: Antibacterial activity against Clavibacter michiganensis assessed as inhibition of bacterial growth; assay type: functional
[21] = test system: Staphylococcus aureus; assay: Anti-biofilm activity in Staphylococcus aureus ATCC 6538 assessed as inhibition of biofilm formation upto 128 uM measured for 24 hrs by MTT assay; assay type: functional, organism-based
[22] = test system: Osteoblast; assay: Cytotoxicity against human Osteoblast cells assessed as reduction in cell viability measured at 64 to 128 uM measured for 24 hrs by MTT assay; assay type: toxicity, cell-based; conditions: dose 64-128 µM
[23] = Metabolic stability in human liver microsome assessed as parent compound remaining at 50 uM incubated for 1 hr in presence of NADPH regenerating system and GSH by LC-UV analysis; assay type: ADME; conditions: liver microsomes, read-out: Stability
[24] = test system: Staphylococcus aureus; assay: Additive antibacterial activity against methicillin-resistant Staphylococcus aureus assessed as fractional inhibitory concentration index in presence of ciprofloxacin by checker board method; assay type: functional
[25] = test system: Staphylococcus aureus; assay: Anti-biofilm activity in Staphylococcus aureus ATCC 6538 assessed as inhibition of biofilm formation at 128 uM measured for 24 hrs by MTT assay; assay type: functional; parameters: scale not given: the % may be the effect or the level left
[26] = test system: Staphylococcus aureus; assay: Anti-biofilm activity in Staphylococcus aureus ATCC 6538 assessed as inhibition of biofilm formation at 16 uM measured for 24 hrs by MTT assay; assay type: functional; parameters: scale not given: the % may be the effect or the level left
[27] = test system: Osteoblast; assay: Cytotoxicity against human Osteoblast cells assessed as reduction in cell viability measured at 128 uM measured for 24 hrs by MTT assay; assay type: toxicity, cell-based
[28] = test system: Staphylococcus aureus; assay: Induction of cell membrane permeability in Staphylococcus aureus ATCC 6538; assay type: functional, organism-based
[29] = test system: Staphylococcus aureus; assay: Additive antibacterial activity against methicillin-resistant Staphylococcus aureus assessed as fractional inhibitory concentration index in presence of tetracycline by checker board method; assay type: functional
[30] = Metabolic stability in human liver microsome assessed as half life at 5 uM incubated for 1 hr in presence of NADPH regenerating system and GSH by LC-UV analysis; assay type: ADME; conditions: liver microsomes
[31] = test system: Staphylococcus aureus; assay: Bactericidal activity against methicillin-resistant Staphylococcus aureus ATCC 43300 measured for 24 hrs by time kill assay; assay type: functional, organism-based
[32] = test system: Staphylococcus aureus; assay: Bactericidal activity against methicillin-resistant Staphylococcus aureus ATCC 43300 incubated for 24 hrs by time kill assay; assay type: functional
[33] = Metabolic stability in human liver microsome assessed as intrinsic clearance at 5 uM incubated for 1 hr in presence of NADPH regenerating system and GSH by LC-UV analysis; assay type: ADME; conditions: liver microsomes, read-out: CLH
[34] = test system: Staphylococcus aureus; assay: Resistance development in methicillin-resistant Staphylococcus aureus ATCC 43300 assessed as fold increase in MIC after 10 passage; assay type: functional
[35] = test system: Staphylococcus aureus; assay: Antibacterial activity against Staphylococcus aureus ATCC 6538 assessed as reduction in cell surface hydrophobicity; assay type: functional, organism-based
[36] = test system: HaCaT; assay: Cytotoxicity against human HaCaT cells assessed as reduction in cell viability measured at 64 to 128 uM measured for 24 hrs by MTT assay; assay type: toxicity, cell-based; conditions: dose 64-128 µM
[37] = test system: Clostridium tetani; assay: Antibacterial activity against Clostridium tetani assessed as inhibition of bacterial growth; assay type: functional
[38] = test system: HaCaT; assay: Cytotoxicity against human HaCaT cells assessed as reduction in cell viability measured at 128 uM measured for 24 hrs by MTT assay; assay type: toxicity, cell-based

SMILES: [C-]#[N+]c1ccc(NC(=O)c2ccncc2)cc1
- remaining at 1 h, 50 µM [1]: 29%
- MIC [2]: ≥ 64 µM
- remaining at 1 h, 50 µM [3]: > 99%
- MIC [4]: > 8 µM
- MIC [5]: > 8 µM
- MIC [6]: ≥ 64 µM
- MIC [7]: > 8 µM
- MIC [8]: ≥ 64 µM

SMILES: [C-]#[N+]c1ccc(C(=O)NCc2ccccc2)cc1
- remaining at 1 h, 50 µM [1]: 29%
- MIC [2]: ≥ 64 µM
- remaining at 1 h, 50 µM [3]: 91%
- MIC [4]: > 8 µM
- MIC [5]: > 8 µM
- MIC [6]: ≥ 64 µM
- MIC [7]: > 8 µM
- MIC [8]: ≥ 64 µM

SMILES: [C-]#[N+]c1ccc(NC(=O)Cc2ccccc2)cc1
- MIC [9]: 1 µM
- remaining at 1 h, 50 µM [1]: 20%
- MIC [2]: ≥ 64 µM
- MIC [10]: > 8 µM
- remaining at 1 h, 50 µM [3]: > 99%
- MIC [4]: > 8 µM
- MIC [5]: 8 µM
- MIC [6]: ≥ 64 µM
- MIC [7]: > 8 µM
- MIC [11]: 1 µM
- MIC [12]: > 8 µM
- MIC [13]: 2 µM
- MIC [8]: ≥ 64 µM

SMILES: O=C(O)c1cn(C2CC2)c2cc(N3CCNCC3)c(F)cc2c1=O [CIPROFLOXACIN]
- MIC [9]: 0.19 µM
- MIC [10]: 0.75 µM
- MIC [4]: 0.38 µM
- MIC [5]: 0.75 µM
- MIC [14]: 1 µM
- MIC [7]: 0.75 µM
- MIC [11]: 0.38 µM
- MIC [12]: 0.75 µM
- MIC [13]: 0.38 µM

SMILES: [C-]#[N+]/C(Cl)=C/C1(OC(C)=O)C(=O)Nc2ccccc21 (centres undefined)
- MIC [15]: 0.18 µM (≈ 0.0498 µg/mL)
- MIC [16]: 0.7 µM (≈ 0.194 µg/mL)
- MIC [17]: 0.7 µM (≈ 0.194 µg/mL)

SMILES: [C-]#[N+]C(=C)[C@@](Cc1ccc(OC)cc1)([N+]#[C-])[C@@H]1C[C@@H](OC(=O)CO)CC[C@@H]1O
- MIC [18]: 0.52 µM (≈ 0.2 µg/mL)
- MIC [19]: 0.52 µM (≈ 0.2 µg/mL)

SMILES: [C-]#[N+]C(=C\c1ccc(O)cc1)/C(=C/c1ccc2c(c1)CCC(C)(C)O2)[N+]#[C-]
- MIC [20]: 0.87 µM (≈ 0.31 µg/mL)

SMILES: COc1cc(Cc2cnc(N)nc2N)cc(OC)c1OC
- Activity [21]: inactive

SMILES: [C-]#[N+]c1ccc(NC(=O)Cc2cccc(Cl)c2)cc1
- Activity [22]: Non-Toxic
- remaining at 1 h, 50 µM [23]: 82%
- MIC [9]: 0.25 µM
- fractional inhibitory concentration index (FICI) [24]: 0.75
- remaining at 1 h, 50 µM [1]: 53%
- Activity [25]: 94%
- Activity [26]: 10%
- MIC [2]: ≥ 64 µM
- MIC [10]: 4 µM
- Activity [27]: > 70%
- remaining at 1 h, 50 µM [3]: > 99%
- Activity [28]: Active
- fractional inhibitory concentration index (FICI) [29]: 0.75
- MIC [4]: 8 µM
- MIC [5]: 2 µM
- MIC [14]: 4 µM
- half-life at 5 µM [30]: 26.2 min
- MIC [6]: ≥ 64 µM
- MIC [7]: 8 µM
- Activity [31]: Active
- MIC [11]: 0.25 µM
- MIC [12]: 4 µM
- Activity [32]: >=99.9%
- MIC [13]: 0.5 µM
- MIC [8]: ≥ 64 µM
- microsomal CLint at 5 µM [33]: 24.4 µL/min/mg
- fold change (FC) [34]: >4
- Activity [21]: inactive
- Activity [35]: inactive
- Activity [36]: Non-Toxic

SMILES: [C-]#[N+]C(=C\c1ccc(O)cc1)/C(=C/c1ccc(O)cc1)[N+]#[C-] [XANTOCILLIN]
- MIC [18]: 0.69 µM (≈ 0.199 µg/mL)
- MIC [19]: 0.25 µM (≈ 0.0721 µg/mL)
- MIC [37]: 0.69 µM (≈ 0.199 µg/mL)

SMILES: [C-]#[N+]c1ccc(NC(=O)COc2ccccc2)cc1
- Activity [22]: Non-Toxic
- Activity [38]: < 70%
- MIC [9]: 0.25 µM
- Activity [25]: 94%
- Activity [26]: 10%
- MIC [2]: ≥ 64 µM
- MIC [10]: 4 µM
- Activity [27]: > 70%
- Activity [28]: Active
- fractional inhibitory concentration index (FICI) [29]: 0.75
- MIC [4]: 8 µM
- MIC [5]: 2 µM
- MIC [14]: 4 µM
- MIC [6]: ≥ 64 µM
- MIC [7]: 8 µM
- Activity [31]: Active
- MIC [11]: 0.25 µM
- MIC [12]: 2 µM
- Activity [32]: >=99.9%
- MIC [13]: 0.5 µM
- MIC [8]: ≥ 64 µM
- fold change (FC) [34]: >4
- Activity [21]: inactive
- Activity [35]: inactive
- Activity [36]: Non-Toxic

SMILES: [C-]#[N+]c1ccc(/C=C/c2ccccc2)cc1
- Activity [38]: < 70%
- MIC [9]: 1 µM
- MIC [10]: 8 µM
- MIC [4]: 8 µM
- MIC [5]: 4 µM
- MIC [7]: 8 µM
- Activity [31]: Active
- MIC [11]: 1 µM
- MIC [12]: 8 µM
- MIC [13]: 2 µM
- Activity [36]: Non-Toxic
